The source of these data is patent publication US6630615B1, “Defense-related signaling genes and methods of use” (Pioneer Hi-Bred International, Inc., priority 1999, dated 2003).

“Also recorded” adds a separate entry of the source.

For the experiment, the system named is sunflower NCE gene expression. As to the kind of experiment: Northern blot analysis of NCE gene transcript levels under different chemical treatments. In kind it is in vivo. The settings on record: six-week-old SMF3 sunflower plants sprayed with 5 mM oxalic acid, 5 mM H2O2, 5 mM salicylic acid or 45 μM jasmonic acid (0.1% ethanol); leaf samples at 0, 6, 12, 24 hours. Here is the method: FIG. 4 depicts the results of a Northern blot analysis of NCE gene transcript levels under different chemical treatments. Six-week-old sunflower plants were sprayed with oxalic acid (OA) (5 mM), H2O2 (5 mM), salicylic acid (SA) (5 mM), and jasmonic acid (JA) (45 μM in 0.1% ethanol). The leaf samples were collected at 0, 6, 12, and 24 hours after the applications and immediately frozen in liquid nitrogen. Twenty μg of total RNA was loaded in each sample lane. (CK, control)
For fungal infection and chemical treatments, SMF3 sunflower plants were planted in four-inch pots and grown in greenhouse for the first four weeks. After transfer to the growth chamber, the plants were maintained under 12-hour photoperiod at 22° C. with an 80% relative humidity. Six-week old plants were inoculated with Sclerotinid-infected carrot plugs or sprayed with an aqueous solution of either 5 mM oxalic acid, 5 mM H2O2, 5 mM salicylic acid or 45 μM jasmonic acid (with 0.1% ethanol). For each plant, three petioles were inoculated and wrapped with a 1 inch×2 inch piece of parafilm. Plant tissue samples were harvested at different time points and immediately frozen in liquid nitrogen and then stored at −80° C.
Plant materials were ground in liquid nitrogen, and total RNA was extracted by the Tri-Reagent method. RNA profiling was conducted using CuraGen Corporation's proprietary method sold under the trademark GENECALLING. See U.S. Pat. No. 5,871,697, herein incorporated by reference. Profiles of RNA samples prepared from combined leaf and stem tissues of six-week-old oxox sunflower plants were compared to profiles of similar RNA samples from of six-week-old SMF3 plants.
Total RNA (20 μg) was separated in a 1% agarose gel containing formaldehyde. Ethidium bromide was included to verify equal loading of RNA. After transfer onto Hybond N+membrane, the blots were hybridized with ^32P-labeled NCE, AAP, or GRP cDNA probes. As a control, a duplicate blot was hybridized with a probe complementary to 18S rRNA. Hybridization and washing conditions were performed according to Church et al. ((1984) Proc. Natl. Acad. Sci. USA 81:1991-1995).
For `OO` [H2O2], the “NCE gene expression (transcript level, Northern blot)” value (shortened to “NCE gene expression”) was “negatively regulated; also recorded: down-regulated”.

With `CC/C=C\C[C@H]1C(=O)CC[C@@H]1CC(=O)O` [jasmonic acid], the “NCE gene expression” value is given as “negatively regulated; also recorded: down-regulated”.

For `O=C(O)C(=O)O` [oxalic acid], the “NCE gene expression” value is reported as “negatively regulated”.

As for `O=C(O)c1ccccc1O` [salicylic acid], the “NCE gene expression” value is listed as “negatively regulated; also recorded: down-regulated”.
